Experimental data as given in patent US20250019379A1, “NEW CRYSTAL FORM OF COMPOUND, AND PREPARATION METHOD THEREFOR AND USE THEREOF” (E-nitiate Biopharmaceuticals (Hangzhou) Co., Ltd, priority 2021, published 2025).
Several values for one entry are separate records, joined by “and”; a condition that tells them apart may be missing. Equal values may be shown once. Marks after values point to notes of the source that are not given here.

System: psoriasis animal model
Test: Psoriasis animal model (imiquimod cream induced)
Assay type: in vivo, C57/BL 6J mice
Settings: for Inhibition rate of skin thickening: 7th day of treatment
Source text: C57/BL 6J mice, 75, female, 7-8 weeks old, weight 18 g-20 g. The animals were from Zhejiang Weitong Lihua Experimental Animal Technology Co., Ltd. (SCXK (Zhejiang) 2019-0001), experimental animal production certificate number 20210107Abzz0619000247; experimental animal use license number: SYXK (Shanghai) 2020-0001 (Via Biotechnology (Shanghai Co., Ltd).
Modeling and administration method: Use depilatory cream to remove hair from an area of about 2 cm×3 cm on the back of each animal. Control the application time of depilatory cream within 2 minutes. Wash the depilated area with warm water, wash off the depilatory agent, and use immediately. Dry the animal's hair with a hair dryer, and place the animal on a constant-temperature electric blanket at 37° C. for 1 h-2 h. After the animal moves freely, it is placed in a cage for normal rearing and recovery for 1 day (if any animal has red, swollen and damaged skin after hair removal, remove it). On the second day, 54 animals with normal skin were selected and randomly grouped according to body weight, with 9 animals in each group, a total of 6 groups. Each animal in the G2-G6 group was evenly applied with 60 mg (60 μL) of 5 wt % imiquimod cream (Aldara) on the back every day for seven consecutive days.
Skin thickness (double-layer): Use a vernier caliper to measure the double-layer thickness of the back skin before drug administration and modeling, and on days 1, 3, 5, and 7 after drug administration.
PASI score: The condition score refers to the clinical PASI scoring standard, and scores three indicators: erythema, scale, and thickness. The total score is 12 points. The scoring standards are as follows:
Erythema: 0 points, none; 1 points, slight: light red; 2 points, moderate: red; 3 points, significant: dark red; 4 points, very obvious: extremely deep red.
Scaling: 0 points, none; 1 point, slight: there are scales on part of the epidermis, mainly fine scales; 2 points, moderate: most of the skin surface is completely or incompletely covered with scales, in a flaky form; 3 points, Significant: almost all skin is covered with scales, and the scales are thick and layered; 4 points, very obvious: all the skin is covered with scales, and the scales are thick and layered.
Plaque thickening degree: 0 points, none: flush with normal skin; 1 points, slight: slightly higher than the skin surface: 2 points, moderate: moderately raised, with round or sloped plaque edges; 3 points, obvious Score: The plaque is hypertrophic and the bulge is obvious; 4 points, very significant: it is highly thickened and the bulge is very obvious.
Skin proliferation inhibition rate (%)=1−[(skin thickness of the treatment group on the 7th day−skin thickness of the blank control group on the 7th day)/skin thickness of the negative control group on the 7th day−skin thickness of the blank control group on the 7th day)]%.
All data are expressed as Mean t SEM. The statistical analysis software SPSS23.0 was used to conduct normal distribution and homogeneity of variance tests on the data. Based on the results, the single-factor analysis of variance method was selected and the homogeneity of variance test was selected based on the results. *P<0.05 will be considered a statistically significant difference.

[1] = 0.5 mg/kg oral twice a day, Day 0
[2] = 0.5 mg/kg oral twice a day, Day 1
[3] = 0.5 mg/kg oral twice a day, Day 3
[4] = 0.5 mg/kg oral twice a day, Day 5
[5] = 0.5 mg/kg oral twice a day, Day 7
[6] = 1.5 mg/kg oral twice a day, Day 0
[7] = 1.5 mg/kg oral twice a day, Day 1
[8] = 1.5 mg/kg oral twice a day, Day 3
[9] = 1.5 mg/kg oral twice a day, Day 5
[10] = 1.5 mg/kg oral twice a day, Day 7
[11] = 1.5 mg/kg oral twice a day, Day 7, listed as crystalline form A
[12] = 5 mg/kg oral twice a day, Day 0
[13] = 5 mg/kg oral twice a day, Day 1
[14] = 5 mg/kg oral twice a day, Day 3
[15] = 5 mg/kg oral twice a day, Day 5
[16] = 5 mg/kg oral twice a day, Day 7
[17] = 5 mg/kg oral twice a day, Day 7, listed as crystalline form A

## C[C@@H](O)c1nc2cnc3[nH]ccc3c2n1N1CCC(CC#N)CC1 [Crystalline form A, (R)-2-(1-(2-(1-hydroxyethyl)imidazo[4,5-d]pyrrolo[2,3-b]pyridine-1(6H)-yl)piperidin-4-yl)acetonitrile]
0.5 mg/kg oral twice a day
  Inhibition rate of skin thickening: 34.6%
[1]
  Average skin thickness (double layer): 0.50 ± 0.01 mm
  PASI score: 0.0 points
[2]
  Average skin thickness (double layer): 0.60 ± 0.01 mm
  PASI score: 0.0 points
[3]
  Average skin thickness (double layer): 1.57 ± 0.11 mm
  PASI score: 6.6 ± 0.69 points
[4]
  Average skin thickness (double layer): 1.27 ± 0.1*** mm
  PASI score: 5.9 ± 0.79** points
[5]
  Average skin thickness (double layer): 1.32 ± 0.09 mm and 1.32 mm
  PASI score: 6.1 ± 0.56*** points
0.5 mg/kg oral twice a day, Day 7, listed as crystalline form A
  PASI score: 6.1 points
1.5 mg/kg oral twice a day
  Inhibition rate of skin thickening: 56.4%
1.5 mg/kg oral twice a day, listed as crystalline form A
  Inhibition rate of skin thickening: 56.4%
[6]
  Average skin thickness (double layer): 0.50 ± 0.01 mm
  PASI score: 0.0 points
[7]
  Average skin thickness (double layer): 0.61 ± 0.02 mm
  PASI score: 0.0 points
[8]
  Average skin thickness (double layer): 1.76 ± 0.15 mm
  PASI score: 6.1 ± 0.56 points
[9]
  Average skin thickness (double layer): 1.53 ± 0.08** mm
  PASI score: 7.0 ± 0.53 points
[10]
  Average skin thickness (double layer): 1.15 ± 0.04** mm and 1.15 mm
  PASI score: 4.9 ± 0.39*** points
[11]
  Average skin thickness (double layer): 1.15 mm
  PASI score: 4.9 points
5 mg/kg oral twice a day
  Inhibition rate of skin thickening: 71.8%
5 mg/kg oral twice a day, listed as crystalline form A
  Inhibition rate of skin thickening: 71.8%
[12]
  Average skin thickness (double layer): 0.50 ± 0.01 mm
  PASI score: 0.0 points
[13]
  Average skin thickness (double layer): 0.64 ± 0.01 mm
  PASI score: 0.0 points
[14]
  Average skin thickness (double layer): 1.35 ± 0.10* mm
  PASI score: 4.9 ± 0.48 points
[15]
  Average skin thickness (double layer): 1.24 ± 0.11*** mm
  PASI score: 4.7 ± 0.58*** points
[16]
  Average skin thickness (double layer): 1.03 ± 0.03*** mm and 1.03 mm
  PASI score: 3.6 ± 0.44*** points
[17]
  Average skin thickness (double layer): 1.03 mm
  PASI score: 3.6 points
